In ChEMBL document CHEMBL2150845, “BACE Inhibitors: Potential Treatment of Alzheimer's Disease, Dementia, and Related Neurodegenerative Disorders (A): 5,6-Dihydroimidazo[1,2-a]pyrazin-8-yl-amine Derivatives: Patent Highlight” (ACS Med Chem Lett, 2012):

Molecular target: Beta-secretase 1 (Homo sapiens, UniProt P56817)
Assay: Inhibition of BACE1 by FRET assay

Sequence of Beta-secretase 1 (P56817 whole entry): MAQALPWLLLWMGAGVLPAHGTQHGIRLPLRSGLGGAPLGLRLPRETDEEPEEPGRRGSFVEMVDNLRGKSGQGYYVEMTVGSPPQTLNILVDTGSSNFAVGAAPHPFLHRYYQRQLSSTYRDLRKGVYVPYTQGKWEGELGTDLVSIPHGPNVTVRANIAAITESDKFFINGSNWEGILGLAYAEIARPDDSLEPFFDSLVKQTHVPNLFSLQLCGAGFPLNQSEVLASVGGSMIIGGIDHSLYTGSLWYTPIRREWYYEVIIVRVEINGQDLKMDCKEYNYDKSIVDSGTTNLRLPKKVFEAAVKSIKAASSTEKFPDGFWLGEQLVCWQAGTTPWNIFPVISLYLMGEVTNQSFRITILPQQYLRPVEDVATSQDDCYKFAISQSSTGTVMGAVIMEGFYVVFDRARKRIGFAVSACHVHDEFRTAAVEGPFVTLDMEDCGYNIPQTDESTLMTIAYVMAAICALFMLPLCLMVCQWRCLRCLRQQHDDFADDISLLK

Structure (SMILES) | IC50 [nM]
C[C@@]1(c2cc(NC(=O)c3ccn(C(F)F)n3)ccc2F)Cn2cc(C(F)(F)F)nc2C(N)=N1 | 46.8
C[C@@]1(c2cc(NC(=O)c3ccc(C#N)cn3)ccc2F)Cn2c(C#N)cnc2C(N)=N1 | 38.9
NC1=N[C@@](c2cc(NC(=O)c3ccc(F)cn3)ccc2F)(C(F)F)Cn2ccnc21 | > 30200
C[C@@]1(c2cc(NC(=O)c3ccn(C(F)F)n3)ccc2F)Cn2c(C#N)cnc2C(N)=N1 | 44.7
